One assay concerns the target Aiolos (Homo sapiens, UniProt Q96SW2+Q9UKT9). As to conditions: for Dmax (maximal degradation achieved), Aiolos: MM1S cells, 24 hours treatment, normalized to tubulin.
For the next assay, the system named is MM1S cells. As to conditions: read-out: IC50 inhibition of cell proliferation, 72 hours, MTS assay.
The next assay addresses CRBN (Homo sapiens, UniProt Q96SW2). Briefly: SPR binding assay with immobilized His-tagged CRBN. As to conditions: for Kd: read-out: CRBN Kd, surface plasmon resonance, average of at least 2 experiments, errors = standard error of the mean, N.B. = no binding observed. (SPR reads the build-up and loss of mass on a sensor chip optically.)

Chain of Aiolos (Q9UKT9 whole entry): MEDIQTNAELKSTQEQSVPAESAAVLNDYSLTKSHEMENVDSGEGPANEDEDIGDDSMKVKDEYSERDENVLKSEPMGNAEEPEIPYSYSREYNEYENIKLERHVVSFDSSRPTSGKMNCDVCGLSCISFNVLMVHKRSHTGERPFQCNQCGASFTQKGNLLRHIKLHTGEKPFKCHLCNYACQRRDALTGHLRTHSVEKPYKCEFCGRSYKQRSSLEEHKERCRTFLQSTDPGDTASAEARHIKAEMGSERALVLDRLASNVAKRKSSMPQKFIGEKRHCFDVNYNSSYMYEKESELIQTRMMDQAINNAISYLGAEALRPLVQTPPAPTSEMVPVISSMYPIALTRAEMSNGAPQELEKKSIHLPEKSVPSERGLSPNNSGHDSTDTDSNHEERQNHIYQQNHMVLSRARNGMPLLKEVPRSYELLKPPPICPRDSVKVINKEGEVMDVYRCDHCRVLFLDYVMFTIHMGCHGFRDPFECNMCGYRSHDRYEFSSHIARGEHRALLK
Chain of Aiolos (Q96SW2 whole entry): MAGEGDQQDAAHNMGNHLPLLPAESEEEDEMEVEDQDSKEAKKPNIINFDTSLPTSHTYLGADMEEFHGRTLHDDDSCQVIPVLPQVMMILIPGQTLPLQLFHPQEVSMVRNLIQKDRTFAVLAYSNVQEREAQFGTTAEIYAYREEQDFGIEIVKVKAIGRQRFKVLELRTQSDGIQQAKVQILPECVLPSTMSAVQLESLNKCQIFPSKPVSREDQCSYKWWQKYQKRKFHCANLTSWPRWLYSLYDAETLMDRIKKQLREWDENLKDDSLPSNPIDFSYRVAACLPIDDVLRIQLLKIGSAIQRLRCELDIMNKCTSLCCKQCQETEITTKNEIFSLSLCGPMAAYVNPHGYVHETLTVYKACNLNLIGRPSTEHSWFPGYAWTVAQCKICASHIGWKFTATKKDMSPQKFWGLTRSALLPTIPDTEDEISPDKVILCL
Chain of Aiolos (Q16531 whole entry partner): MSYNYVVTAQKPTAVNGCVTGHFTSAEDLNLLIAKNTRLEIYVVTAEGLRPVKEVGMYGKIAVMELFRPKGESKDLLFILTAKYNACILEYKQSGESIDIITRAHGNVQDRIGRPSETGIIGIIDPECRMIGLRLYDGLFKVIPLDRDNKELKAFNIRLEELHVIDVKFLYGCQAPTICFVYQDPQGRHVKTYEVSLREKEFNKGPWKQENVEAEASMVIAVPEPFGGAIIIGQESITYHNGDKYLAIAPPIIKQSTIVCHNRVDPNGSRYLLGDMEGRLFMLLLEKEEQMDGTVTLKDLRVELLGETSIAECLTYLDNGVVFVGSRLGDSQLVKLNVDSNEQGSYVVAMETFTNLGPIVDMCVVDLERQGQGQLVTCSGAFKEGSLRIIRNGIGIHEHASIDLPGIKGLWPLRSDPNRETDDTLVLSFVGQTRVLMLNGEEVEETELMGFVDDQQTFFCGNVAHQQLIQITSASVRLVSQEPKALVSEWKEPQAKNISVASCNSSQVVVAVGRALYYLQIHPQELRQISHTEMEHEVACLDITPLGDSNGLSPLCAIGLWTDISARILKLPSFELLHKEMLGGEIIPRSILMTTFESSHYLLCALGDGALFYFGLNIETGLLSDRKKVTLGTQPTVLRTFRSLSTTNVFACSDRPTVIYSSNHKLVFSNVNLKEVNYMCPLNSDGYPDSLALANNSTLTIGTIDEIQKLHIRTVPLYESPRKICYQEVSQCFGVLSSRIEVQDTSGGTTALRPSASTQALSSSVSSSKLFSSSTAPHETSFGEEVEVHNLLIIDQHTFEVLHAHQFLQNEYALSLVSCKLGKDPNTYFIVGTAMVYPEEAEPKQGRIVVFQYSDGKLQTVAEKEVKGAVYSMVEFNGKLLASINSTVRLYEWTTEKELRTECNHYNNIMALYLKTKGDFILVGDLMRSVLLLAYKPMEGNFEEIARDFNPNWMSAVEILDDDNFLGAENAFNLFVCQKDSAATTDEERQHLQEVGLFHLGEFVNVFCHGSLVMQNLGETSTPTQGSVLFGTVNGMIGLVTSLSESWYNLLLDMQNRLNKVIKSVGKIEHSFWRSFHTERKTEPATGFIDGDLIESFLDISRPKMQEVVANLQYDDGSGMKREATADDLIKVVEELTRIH
Chain of CRBN (Q96SW2 whole entry): as the sequence (Q96SW2 whole entry) above

As a reminder, the Dmax is the greatest extent of degradation seen. As to `Nc1cccc2c1C(=O)N(C1CCC(=O)NC1=O)C2=O` (centres unmarked) [Compound 13, Pomalidomide, reference compound], the Dmax at Aiolos (MM1.S, read-out: Dmax (maximal degradation achieved), Aiolos) was > 95%.

Usually Kd stands for the concentration at which binding is half-saturated. On to `O=C1CCC(N2C(=O)c3cccc(F)c3C2=O)C(=O)N1` (centres unmarked) [Compound 17], for which the “Dmax (maximal degradation achieved), Aiolos” value on Aiolos was found to be 83%. Further, the IC50 with MM1S cells stood at 3570 nM. In addition, the “fold less affinity for CRBN than Pomalidomide and Compound 19” value at CRBN (compared with Pomalidomide and Compound 19) is “roughly 2 fold”. Further, the Kd on CRBN is 558 ± 51 nM.

As for `Cc1cccc2c1C(=O)N(C1CCC(=O)NC1=O)C2=O` (centres unmarked) [Compound 19], the “Dmax (maximal degradation achieved), Aiolos” value on Aiolos was 85%. Also, the IC50 with MM1S cells was found to be 128 nM. For the same compound, the Kd on CRBN amounted to 325 ± 24 nM.

These data come from publication PMC6291207 (ChemMedChem, 2018).
